Results on 10 molecules are retold here after BindingDB's records for doi:10.1016/j.bmcl.2006.01.032 (Central Pharmaceutical Research Institute, 2006).

The assay is described as follows: Inhibition of HCV RNA replication in Huh5-2 cells after 48 hrs.
Regarding `O=C(O)c1ccc2c(c1)nc(-c1ccc(OC(c3ccc(Cl)cc3)c3ccc(Cl)cc3)cc1)n2C1CCCCC1` [2-(4-(bis(4-chlorophenyl)methoxy)phenyl)-1-cyclohexyl-1H-benzo[d]imidazole-5-carboxylic acid], the response was half-maximal at 3.6 µM (EC50).
In the case of `O=C(O)c1ccc2c(c1)nc(-c1ccc(OC(c3cccc(F)c3)c3cccc(F)c3)cc1)n2C1CCCCC1` [2-(4-(bis(3-fluorophenyl)methoxy)phenyl)-1-cyclohexyl-1H-benzo[d]imidazole-5-carboxylic acid] it was 2.8 µM; in that of `O=C(O)c1ccc2c(c1)nc(-c1ccc(OC(c3ccccc3)c3ccccc3)cc1F)n2C1CCCCC1` [2-(4-(benzhydryloxy)-2-fluorophenyl)-1-cyclohexyl-1H-benzo[d]imidazole-5-carboxylic acid], 1.9 µM.
Next, `Cc1ccc(C(Oc2ccc(-c3nc4cc(C(=O)O)ccc4n3C3CCCCC3)cc2)c2ccc(C)cc2)cc1` [1-cyclohexyl-2-(4-(dip-tolylmethoxy)phenyl)-1H-benzo[d]imidazole-5-carboxylic acid]: 3.7 µM; `O=C(O)c1ccc2c(c1)nc(-c1ccc(OC(c3ccc(F)cc3)c3ccc(F)cc3)cc1F)n2C1CCCCC1` [2-(4-(bis(4-fluorophenyl)methoxy)-2-fluorophenyl)-1-cyclohexyl-1H-benzo[d]imidazole-5-carboxylic acid]: 1.6 µM.
In the case of `O=C(O)c1ccc2c(c1)nc(-c1ccc(OC(c3ccc(F)cc3)c3ccc(F)cc3)cc1)n2C1CCCCC1` [2-(4-(bis(4-fluorophenyl)methoxy)phenyl)-1-cyclohexyl-1H-benzo[d]imidazole-5-carboxylic acid] it was 2.2 µM; in that of `O=C(O)c1ccc2c(c1)nc(-c1ccc(OC(c3ccccc3)c3cccnc3)cc1F)n2C1CCCCC1` (stereo not given) [1-Cyclohexyl-2-[2-fluoro-4-(phenyl-pyridin-3-yl-methoxy)-phenyl]-1H-benzoimidazole-5-carboxylic acid], 1.1 µM; in that of `O=C(O)c1ccc2c(c1)nc(-c1ccc(OC(c3ccccc3)c3ccccc3)cc1)n2C1CCCCC1` [2-(4-(benzhydryloxy)phenyl)-1-cyclohexyl-1H-benzo[d]imidazole-5-carboxylic acid], 2.6 µM.
For `O=C(O)c1ccc2c(c1)nc(-c1ccc(OC(c3cccnc3)c3cccnc3)cc1F)n2C1CCCCC1` [1-Cyclohexyl-2-[4-(di-pyridin-3-yl-methoxy)-2-fluoro-phenyl]-1H-benzoimidazole-5-carboxylic acid], the EC50 (as a rule, the concentration needed to bring the measured effect to its halfway point) is 2.6 µM.
In the case of `CN(C)C(=O)c1ccc(C(Oc2ccc(-c3nc4cc(C(=O)O)ccc4n3C3CCCCC3)c(F)c2)c2ccc(C(=O)N(C)C)cc2)cc1` [2-{4-[Bis-(4-dimethylcarbamoyl-phenyl)-methoxy]-2-fluoro-phenyl}-1-cyclohexyl-1H-benzoimidazole-5-carboxylic acid] it was 1.2 µM.
